Experimental data from ChEMBL document CHEMBL1201862, “PubChem BioAssay data set” (2004).
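Five concentrations, 48 hours, 96-well plates. GI50 is the concentration that inhibits growth by half.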 Active and inactive are the calls of the source. Cut-off read from the data, not from the text of the source: active = GI50 up to about 1.1 µM and inactive = higher.

Key:
Assay in all cases: NCI anticancer screen, dose series, 48 h
OVCAR-5 = test system: OVCAR-5
OVCAR-4 = test system: OVCAR-4
NCI-H460 = test system: NCI-H460
MOLT-4 = test system: MOLT-4
COLO 205 = test system: COLO 205
UACC-257 = test system: UACC-257
HOP-62 = test system: HOP-62
M14 = test system: M14
SR = test system: SR
SF-268 = test system: SF-268
ACHN = test system: ACHN
CCRF-CEM = test system: CCRF-CEM
LOX IMVI = test system: LOX IMVI
CAKI-1 = test system: CAKI-1
HCT-116 = test system: HCT-116
HCC 2998 = test system: HCC 2998

Measured: GI50

COc1cc(/C=N\c2ccc(C(C)C)cc2)cc(OC)c1OC
inactive: OVCAR-5 > 100 µM | OVCAR-4 > 100 µM | NCI-H460 97.3 µM | MOLT-4 > 100 µM | COLO 205 > 73.6 µM | UACC-257 > 100 µM | HOP-62 > 100 µM | M14 > 100 µM | SR 54.3 µM | SF-268 > 100 µM | ACHN > 100 µM | CCRF-CEM > 66.8 µM | LOX IMVI > 54.7 µM | CAKI-1 > 100 µM | HCT-116 > 100 µM

CCC1c2cc3n(c(=O)c2COC1O)Cc1c-3nc2ccccc2c1Cl (configuration not stated)
inactive: OVCAR-5 > 100 µM | OVCAR-4 > 65.5 µM | NCI-H460 3.89 µM | HCC 2998 44.7 µM | MOLT-4 3.28 µM | COLO 205 > 89.5 µM | UACC-257 > 100 µM | HOP-62 14.8 µM | M14 25 µM | SF-268 14.4 µM | ACHN 19.3 µM | CCRF-CEM 3.34 µM | LOX IMVI 18.6 µM | CAKI-1 23 µM | HCT-116 20.1 µM

N=C(N)NNC(=O)CCCCCCCC(=O)NNC(=N)N
inactive: OVCAR-5 > 100 µM | OVCAR-4 33.9 µM | NCI-H460 > 100 µM | HCC 2998 > 100 µM | COLO 205 18.3 µM | UACC-257 > 100 µM | HOP-62 > 100 µM | M14 > 100 µM | SF-268 > 100 µM | ACHN > 100 µM | CCRF-CEM > 100 µM | LOX IMVI > 100 µM | CAKI-1 > 100 µM | HCT-116 > 100 µM

CCOC(=O)C1=C(C)NC(=O)NC1c1ccc(OC)cc1OC (configuration not stated)
inactive: OVCAR-5 > 100 µM | NCI-H460 > 100 µM | HCC 2998 > 100 µM | MOLT-4 > 100 µM | COLO 205 > 100 µM | UACC-257 > 100 µM | HOP-62 > 100 µM | M14 > 100 µM | SR > 100 µM | SF-268 > 100 µM | ACHN > 100 µM | CCRF-CEM 84.5 µM | LOX IMVI > 100 µM | CAKI-1 > 100 µM | HCT-116 > 100 µM

CCOC(=O)c1cc(/C=C/C(C)=C/C(=O)OC)oc1C
inactive: OVCAR-5 > 100 µM | OVCAR-4 > 100 µM | NCI-H460 > 100 µM | MOLT-4 > 100 µM | COLO 205 > 100 µM | UACC-257 > 100 µM | HOP-62 > 100 µM | M14 > 100 µM | SR > 100 µM | SF-268 > 100 µM | ACHN > 100 µM | CCRF-CEM > 100 µM | LOX IMVI > 100 µM | CAKI-1 > 100 µM | HCT-116 > 100 µM

CCC1=CC2CN3Cn4c(c(COCc5c6n(c7ccccc57)CN5CC7C=C(CC)C5C6(C(=O)OC)C7)c5ccccc54)C(C(=O)OC)(C2)C13
inactive: OVCAR-4 > 100 µM | NCI-H460 > 100 µM | MOLT-4 > 100 µM | COLO 205 > 100 µM | UACC-257 > 100 µM | HOP-62 > 100 µM | M14 > 100 µM | SR > 100 µM | SF-268 66.8 µM | ACHN 68.4 µM | CCRF-CEM > 100 µM | LOX IMVI > 100 µM | CAKI-1 > 100 µM | HCT-116 > 100 µM

Nc1ccc(C(=O)NN2C(=O)C(Cl)C2c2ccc([N+](=O)[O-])cc2)cc1 (configuration not stated)
inactive: OVCAR-5 17.6 µM | OVCAR-4 12.7 µM | NCI-H460 6.21 µM | HCC 2998 9.08 µM | MOLT-4 3.2 µM | COLO 205 14.8 µM | UACC-257 14.7 µM | HOP-62 11 µM | M14 12.9 µM | SF-268 1.99 µM | ACHN 12.3 µM | CCRF-CEM 3.54 µM | LOX IMVI 1.74 µM | CAKI-1 20 µM | HCT-116 1.63 µM

O=c1c2cc(Br)ccc2n(C2OC(CO)C(O)C(O)C2O)c(=S)n1-c1ccccc1 (configuration not stated)
inactive: OVCAR-5 > 100 µM | OVCAR-4 > 100 µM | NCI-H460 > 100 µM | HCC 2998 > 100 µM | MOLT-4 86.7 µM | COLO 205 > 100 µM | UACC-257 > 100 µM | HOP-62 > 100 µM | SR 73.3 µM | SF-268 > 100 µM | ACHN > 100 µM | LOX IMVI > 100 µM | HCT-116 > 100 µM

[O-][S+]1Nc2c(Cl)cc(Cl)c3c(Cl)cc(Cl)c(c23)N1
inactive: OVCAR-5 27.8 µM | OVCAR-4 25.6 µM | HCC 2998 28.4 µM | MOLT-4 22.6 µM | COLO 205 > 100 µM | UACC-257 54.7 µM | M14 31.8 µM | SF-268 34.6 µM | ACHN 27.7 µM | CCRF-CEM 31.6 µM | LOX IMVI 32.8 µM | CAKI-1 32.4 µM | HCT-116 34.1 µM

CN(C)c1ccc(C(C=C2c3ccccc3Sc3ccccc32)=C(C#N)C#N)cc1
inactive: OVCAR-5 > 100 µM | OVCAR-4 16 µM | NCI-H460 68.9 µM | HCC 2998 > 100 µM | MOLT-4 > 100 µM | COLO 205 > 100 µM | UACC-257 > 100 µM | HOP-62 93.8 µM | M14 58.6 µM | SF-268 > 100 µM | ACHN 37.5 µM | CCRF-CEM > 100 µM | LOX IMVI 48.4 µM | CAKI-1 65.9 µM | HCT-116 > 100 µM

CCCc1c2c([nH]c(=O)c1C)C(=O)c1[nH]c(=O)c(C)c(CCC)c1C2=O
inactive: OVCAR-5 35.6 µM | OVCAR-4 12.2 µM | NCI-H460 14.5 µM | HCC 2998 38.4 µM | MOLT-4 3.93 µM | COLO 205 25.8 µM | UACC-257 2.84 µM | HOP-62 > 100 µM | M14 1.66 µM | SR 5.56 µM | SF-268 23 µM | ACHN 7.48 µM | CCRF-CEM 21.7 µM | LOX IMVI 8.11 µM | HCT-116 3.01 µM

O=C(/C=C/c1ccc[nH]1)c1ccccc1
inactive: OVCAR-5 > 100 µM | OVCAR-4 > 100 µM | NCI-H460 > 100 µM | MOLT-4 > 100 µM | COLO 205 > 100 µM | UACC-257 > 100 µM | HOP-62 > 100 µM | M14 > 100 µM | SR > 100 µM | SF-268 > 100 µM | ACHN > 100 µM | CCRF-CEM > 100 µM | LOX IMVI > 100 µM | CAKI-1 > 100 µM | HCT-116 > 100 µM

Nc1cccc2c1C(=O)c1cccc(N)c1C2=O
inactive: OVCAR-5 > 100 µM | OVCAR-4 > 100 µM | NCI-H460 > 100 µM | HCC 2998 > 100 µM | MOLT-4 > 100 µM | COLO 205 > 100 µM | UACC-257 > 100 µM | HOP-62 > 100 µM | M14 > 100 µM | SF-268 > 100 µM | ACHN > 100 µM | CCRF-CEM > 100 µM | LOX IMVI > 100 µM | CAKI-1 > 100 µM | HCT-116 > 100 µM

Nc1n[n+]([O-])c2ccccc2[n+]1[O-] [TIRAPAZAMINE]
inactive: OVCAR-5 > 100 µM | OVCAR-4 > 100 µM | NCI-H460 49.7 µM | MOLT-4 37.4 µM | COLO 205 > 100 µM | UACC-257 72.4 µM | HOP-62 53.1 µM | M14 > 100 µM | SF-268 > 100 µM | ACHN 48.6 µM | CCRF-CEM > 100 µM | LOX IMVI > 100 µM | CAKI-1 46.2 µM
